pIC50: −log10 of the molar value.
Each compound was assayed against T1, IGF-1R (Homo sapiens, UniProt P08069) (assay: Cellular IGF-1R assay: capture ELISA (MSD) of receptor phosphorylation in Hek293 cells). Conditions: Hek293-IGF1R cells, 1 h pre-incubation, 10 min IGF stimulation, pIGF1R capture ELISA.
T1 construct: expressed in transfected cells; host or cells: Hek293 (Hek293-IGF1R)
Type: cell-based
In short: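 IC50 from 4-parameter fit of IGF1R phosphorylation, normalised to IGF-stimulated and unstimulated controls, measured by MSD capture ELISA on lysates. Hek293-IGF1R cells in starvation medium got compound 1 h (top 10 μM, 3-fold steps, 0.1% DMSO) before a 10 min pulse of 1.0 ng/μL IGF.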

T1 sequence (P08069 31-1367): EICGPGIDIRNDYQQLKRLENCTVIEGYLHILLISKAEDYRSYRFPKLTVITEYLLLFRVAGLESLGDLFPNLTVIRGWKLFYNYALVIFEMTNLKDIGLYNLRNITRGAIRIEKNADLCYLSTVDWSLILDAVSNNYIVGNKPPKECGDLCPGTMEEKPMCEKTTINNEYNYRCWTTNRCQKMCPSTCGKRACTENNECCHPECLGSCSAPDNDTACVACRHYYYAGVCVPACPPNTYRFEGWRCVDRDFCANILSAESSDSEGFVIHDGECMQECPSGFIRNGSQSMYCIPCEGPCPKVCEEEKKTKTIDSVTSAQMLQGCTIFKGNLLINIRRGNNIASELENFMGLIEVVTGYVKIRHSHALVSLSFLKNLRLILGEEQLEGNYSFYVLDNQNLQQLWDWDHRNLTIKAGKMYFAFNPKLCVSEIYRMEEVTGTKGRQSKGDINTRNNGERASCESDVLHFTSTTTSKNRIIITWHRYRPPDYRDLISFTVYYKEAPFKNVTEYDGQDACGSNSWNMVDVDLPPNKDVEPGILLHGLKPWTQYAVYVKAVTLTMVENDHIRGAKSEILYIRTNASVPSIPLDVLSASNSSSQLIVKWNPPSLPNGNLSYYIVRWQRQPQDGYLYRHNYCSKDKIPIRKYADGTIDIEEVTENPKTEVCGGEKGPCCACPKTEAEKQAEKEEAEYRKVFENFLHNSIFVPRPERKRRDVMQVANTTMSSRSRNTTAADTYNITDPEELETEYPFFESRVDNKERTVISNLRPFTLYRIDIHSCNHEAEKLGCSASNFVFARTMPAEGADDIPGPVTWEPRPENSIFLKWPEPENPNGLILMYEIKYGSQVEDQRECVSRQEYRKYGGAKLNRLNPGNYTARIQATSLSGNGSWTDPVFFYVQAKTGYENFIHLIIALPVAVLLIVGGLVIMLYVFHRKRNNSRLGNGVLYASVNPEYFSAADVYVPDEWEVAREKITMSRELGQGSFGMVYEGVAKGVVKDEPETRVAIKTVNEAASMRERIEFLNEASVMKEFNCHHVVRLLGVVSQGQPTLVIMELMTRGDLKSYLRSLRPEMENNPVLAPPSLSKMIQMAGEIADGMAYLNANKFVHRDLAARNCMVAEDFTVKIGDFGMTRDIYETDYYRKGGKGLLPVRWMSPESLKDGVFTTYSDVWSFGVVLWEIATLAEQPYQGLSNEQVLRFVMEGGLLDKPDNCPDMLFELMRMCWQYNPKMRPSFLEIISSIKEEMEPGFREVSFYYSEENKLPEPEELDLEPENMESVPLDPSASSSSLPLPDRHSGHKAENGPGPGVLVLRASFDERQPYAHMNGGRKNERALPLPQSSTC

Compound	pIC50
NC(=O)[C@@H]1CCCN1C[C@H]1C[C@@H](n2cc(-c3cccc(OCC4CCCO4)c3)c3c(N)ncnc32)C1 (stereo partly drawn) [Example 76, (S)-1-(cis-3-{4-amino-5-[3-(tetrahydro-furan-2-ylmethoxy)-phenyl]-pyrrolo[2,3-d]pyrimidin-7-yl}-cyclobutylmethyl)-pyrrolidine-2-carboxylic acid amide]	7.41
Nc1ncnc2c1c(-c1cccc(OCC34CCC(CC3)O4)c1)cn2C1CCC(N2CC[C@H](F)C2)CC1 (stereo partly drawn) [Example 132, 5-(3-(7-oxabicyclo[2.2.1]heptan-1-ylmethoxy)phenyl)-7-((1R,4R)-4-((S)-3-fluoropyrrolidin-1-yl)cyclohexyl)-7H-pyrrolo[2,3-d]pyrimidin-4-amine]	6.94
NC(=O)[C@@H]1CCCN1C[C@H]1C[C@H](n2cc(-c3cccc(OCC4CCCO4)c3)c3c(N)ncnc32)C1 (stereo partly drawn) [Example 86, (S)-1-(trans-3-(4-amino-5-[3-(tetrahydro-furan-2-ylmethoxy)-phenyl]-pyrrolo[2,3-d]pyrimidin-7-yl}-cyclobutylmethyl)-pyrrolidine-2-carboxylic acid amide]	7.33
CC1(C)CCC(COc2cccc(-c3cn([C@H]4C[C@@H](CN5CC(C(N)=O)C5)C4)c4ncnc(N)c34)c2)O1 (relative stereo) [Example 49, 1-(cis-3-{4-amino-5-[3-(5,5-dimethyl-tetrahydro-furan-2-ylmethoxy)-phenyl]-pyrrolo[2,3-d]pyrimidin-7-yl}-cyclobutylmethyl)-azetidine-3-carboxylic acid amide]	6.62 to 6.72
CC1(C)CCC(COc2cccc(-c3cn(C4CCC(N5CCC[C@H]5C(N)=O)CC4)c4ncnc(N)c34)c2)O1 (stereo partly drawn) [Example 69, (S)-1-(4-{4-amino-5-[3-(5,5-dimethyl-tetrahydro-furan-2-ylmethoxy)-phenyl]-pyrrolo[2,3-d]pyrimidin-7-yl}-cyclohexyl)-pyrrolidine-2-carboxylic acid amide]	6.41
CC1CCC(COc2cccc(-c3cn([C@H]4C[C@@H](CN5CCC5)C4)c4ncnc(N)c34)c2)O1 (stereo partly drawn) [Example 5, cis-7-(3-azetidin-1-ylmethyl-cyclobutyl)-5-[3-(5-methyl-tetrahydro-furan-2-ylmethoxy)-phenyl]-7H-pyrrolo[2,3-d]pyrimidin-4-ylamine]	7.24 to 7.29
CC1(C)CN(CC2CC(n3cc(-c4cccc(OCC5CCCCO5)c4)c4c(N)ncnc43)C2)[C@H](C(N)=O)CO1 (stereo partly drawn) [Example 98, (3S)-4-((3-(4-amino-5-(3-((tetrahydro-2H-pyran-2-yl)methoxy)phenyl)-7H-pyrrolo[2,3-d]pyrimidin-7-yl)cyclobutyl)methyl)-6,6-dimethylmorpholine-3-carboxamide]	7.55
CNC(=O)[C@H]1CCCN1C[C@H]1C[C@@H](n2cc(-c3cccc(OCC4CCCCO4)c3)c3c(N)ncnc32)C1 (stereo partly drawn) [Example 100, (2R)-1-(((1R,3R)-3-(4-amino-5-(3-((tetrahydro-2H-pyran-2-yl)methoxy)phenyl)-7H-pyrrolo[2,3-d]pyrimidin-7-yl)cyclobutyl)methyl)-N-methylpyrrolidine-2-carboxamide]	6.35
CC1(C)CS(=O)(=O)CCN1CC1CCC(n2cc(-c3cccc(OCC45CCC(CC4)O5)c3)c3c(N)ncnc32)CC1 (stereo not drawn) [Example 135, 7-[4-(3,3-Dimethyl-1,1-dioxo-1λ6-thiomorpholin-4-ylmethyl)-cyclohexyl]-5-[3-(7-oxa-bicyclo[2.2.1]hept-1-ylmethoxy)-phenyl]-7H-pyrrolo[2,3-d]pyrimidin-4-ylamine]	6.34
CC1(C)CCC(COc2cccc(-c3cn([C@H]4C[C@@H](CN5CCSC5)C4)c4ncnc(N)c34)c2)O1 (relative stereo) [Example 70, 5-[3-(5,5-dimethyl-tetrahydro-furan-2-ylmethoxy)-phenyl]-7-(cis-3-thiazolidin-3-ylmethyl-cyclobutyl)-7H-pyrrolo[2,3-d]pyrimidin-4-ylamine]	7.23
CC1(C)CCC(COc2cccc(-c3cn([C@H]4C[C@@H](CN5CC[C@@H](F)C5)C4)c4ncnc(N)c34)c2)O1 (relative stereo) [Example 52, 5-[cis-3-(5,5-dimethyl-tetrahydro-furan-2-ylmethoxy)-phenyl]-7-[3-((R)-3-fluoro-pyrrolidin-1-ylmethyl)cyclobutyl]-7H-pyrrolo[2,3-d]pyrimidin-4-ylamine]	7.43
Nc1ncnc2c1c(-c1cccc(OCC3CCCCO3)c1)cn2[C@H]1C[C@H](CN2CC(F)C2)C1 (relative stereo) [Example 37, 7-[trans-3-(3-fluoro-azetidin-1-ylmethyl)-cyclobutyl]-5-[3-(tetrahydro-pyran-2-ylmethoxy)-phenyl]-7H-pyrrolo[2,3-d]pyrimidin-4-ylamine]	6.30
CS(=O)(=O)CCN1CCC(n2cc(-c3cccc(OCC45CCC(CC4)O5)c3)c3c(N)ncnc32)CC1 [Example 114, 5-(3-(7-oxabicyclo[2.2.1]heptan-1-ylmethoxy)phenyl)-7-(1-(2-(methylsulfonyl)ethyl)piperidin-4-yl)-7H-pyrrolo[2,3-d]pyrimidin-4-amine]	6.52

Other lines, results leading:

pIC50	Compound
7.27 to 7.62	CC12CCC(COc3cccc(-c4cn([C@H]5C[C@@H](CN6CCS(=O)(=O)CC6)C5)c5ncnc(N)c45)c3)(CC1)O2 (relative stereo) [Example 155, 7-[cis-3-(1,1-dioxo-1-thiomorpholin-4-ylmethyl)-cyclobutyl]-5-[3-(4-methyl-7-oxa-bicyclo[2.2.1]hept-1-ylmethoxy)-phenyl]-7H-pyrrolo[2,3-d]pyrimidin-4-ylamine]
6.96	Nc1ncnc2c1c(-c1cccc(OCC34CCC(CC3)O4)c1)cn2C1CC(CNC(CO)CO)C1 (stereo not drawn) [Example 168, 2-[(3-{4-amino-5-[3-(7-oxa-bicyclo[2.2.1]hept-1-ylmethoxy)-phenyl]-pyrrolo[2,3-d]pyrimidin-7-yl}-cyclobutylmethyl)-amino]-propane-1,3-diol]
7.80	[2H]C1([2H])C([2H])([2H])C2(COc3cccc(-c4cn([C@H]5C[C@@H](CN6CCS(=O)(=O)CC6)C5)c5ncnc(N)c45)c3)OC1([2H])C([2H])([2H])C2([2H])[2H] [Example 166, d9-7-[cis-3-(1,1-dioxo-1-thiomorpholin-4-ylmethyl)-cyclobutyl]-5-[3-(7-oxa-bicyclo[2.2.1]hept-1-ylmethoxy)-phenyl]-7H-pyrrolo[2,3-d]pyrimidin-4-ylamine]
7.00	Nc1ncnc2c1c(-c1cccc(OCC34CCC(CC3)O4)c1)cn2[C@H]1C[C@@]2(COC(=O)O2)C1 [Example 197, (E)-2-{4-Amino-5-[3-(7-oxa-bicyclo[2.2.1]hept-1-ylmethoxy)-phenyl]-pyrrolo[2,3d]pyrimidin-7-yl}-5,7-dioxa-spiro[3.4]octan-6-one]
6.35 to 6.97	Cc1nccn1C[C@H]1C[C@@H](n2cc(-c3cccc(OCC45CCC(C)(CC4)O5)c3)c3c(N)ncnc32)C1 (relative stereo) [Example 157, 7-[cis-3-(2-methyl-imidazol-1-ylmethyl)-cyclobutyl]-5-[3-(4-methyl-7-oxa-bicyclo[2.2.1]hept-1-ylmethoxy)-phenyl]-7H-pyrrolo[2,3-d]pyrimidin-4-ylamine]
6.76	Nc1ncnc2c1c(-c1cccc(OCC34CCC(CC3)O4)c1)cn2[C@H]1CC[C@@H](NC(=O)C2CC2)CC1 [Example 146, N-((1S,4S)-4-(5-(3-(7-oxabicyclo[2.2.1]heptan-1-ylmethoxy)phenyl)-4-amino-7H-pyrrolo[2,3-d]pyrimidin-7-yl)cyclohexyl)cyclopropanecarboxamide]
6.84	CC(C)C(=O)NCC1CC(n2cc(-c3cccc(OCC45CCC(CC4)O5)c3)c3c(N)ncnc32)C1 (stereo not drawn) [Example 164, N-(3-{4-amino-5-[3-(7-oxa-bicyclo[2.2.1]hept-1-ylmethoxy)-phenyl]-pyrrolo[2,3-d]pyrimidin-7-yl}-cyclobutylmethyl)-isobutyramide]
6.39	COC(=O)NC[C@]1(O)C[C@H](n2cc(-c3cccc(OCC45CCC(CC4)O5)c3)c3c(N)ncnc32)C1 [Example 218, (E)-(3-{4-Amino-5-[3-(7-oxa-bicyclo[2.2.1]hept-1-ylmethoxy)-phenyl]-pyrrolo[2,3-d]pyrimidin-7-yl}-1-hydroxy-cyclobutylmethyl)-carbamic acid methyl ester]
6.32	NC[C@]1(O)C[C@H](n2cc(-c3cccc(OCC45CCC(CC4)O5)c3)c3c(N)ncnc32)C1 [Example 201]
7.68	Nc1ncnc2c1c(-c1cccc(OCC34CCC(CC3)O4)c1)cn2[C@H]1C[C@@H](N2CCN(CCO)CC2)C1 (relative stereo) [Example 172, 2-[4-(cis-3-{4-amino-5-[3-(7-oxa-bicyclo[2.2.1]hept-1-ylmethoxy)-phenyl]-pyrrolo[2,3-d]pyrimidin-7-yl}-cyclobutyl)-piperazin-1-yl]-ethanol]
6.33	CN1CCN(C(=O)N[C@H]2CC[C@@H](n3cc(-c4cccc(OCC56CCC(CC5)O6)c4)c4c(N)ncnc43)CC2)CC1 [Example 140, N-((1R,4R)-4-(5-(3-(7-oxabicyclo[2.2.1]heptan-1-ylmethoxy)phenyl)-4-amino-7H-pyrrolo[2,3-d]pyrimidin-7-yl)cyclohexyl)-4-methylpiperazine-1-carboxamide]
6.83	7-[cis-3-(2-hydroxymethyl-imidazol-1-ylmethyl)-cyclobutyl]-53-(7-oxa-bicyclo[2.2.1]hept-1-ylmethoxy)--phenyl]-7H-pyrrolo[2,3-d]pyrimidin-4-ylamine [Example 176]
6.48	Nc1ncnc2c1c(-c1cccc(OCC34CCC(CC3)O4)c1)cn2[C@@H]1CCN(C2CCS(=O)(=O)CC2)C1 [Example 215, 7-[(R)-1-(1,1-dioxo-hexahydro-thiopyran-4-yl)-pyrrolidin-3-yl]-5-[3-(7-oxa-bicyclo[2.2.1]hept-1-ylmethoxy)-phenyl]-7H-pyrrolo[2,3-d]pyrimidin-4-ylamine]
6.20	Nc1ncnc2c1c(-c1cccc(OCC34CCC(CC3)O4)c1)cn2C1CC(CN2CC3CC2C[S+]3[O-])C1 (single isomer, unassigned) [Example 229]
